Data reported in PMC8222254, “Self-assembly of an anion receptor with metal-dependent kinase inhibition and potent in vitro anti-cancer properties” (Nature Communications, 2021).
Several values for one entry are separate records, joined by “and”; a condition that tells them apart may be missing. Equal entries are not always repeated.

Columns and labels:
Assay in all cases: Kinase inhibition screen, cell-free 33P ATP assay at 10 μM
Format in all cases: biochemical
[1] = molecular target: 140 purified human kinases (Homo sapiens, UniProt Q9HBH9)
140 purified human kinases (Homo sapiens, UniProt Q9HBH9), sequence (Q9HBH9 whole entry): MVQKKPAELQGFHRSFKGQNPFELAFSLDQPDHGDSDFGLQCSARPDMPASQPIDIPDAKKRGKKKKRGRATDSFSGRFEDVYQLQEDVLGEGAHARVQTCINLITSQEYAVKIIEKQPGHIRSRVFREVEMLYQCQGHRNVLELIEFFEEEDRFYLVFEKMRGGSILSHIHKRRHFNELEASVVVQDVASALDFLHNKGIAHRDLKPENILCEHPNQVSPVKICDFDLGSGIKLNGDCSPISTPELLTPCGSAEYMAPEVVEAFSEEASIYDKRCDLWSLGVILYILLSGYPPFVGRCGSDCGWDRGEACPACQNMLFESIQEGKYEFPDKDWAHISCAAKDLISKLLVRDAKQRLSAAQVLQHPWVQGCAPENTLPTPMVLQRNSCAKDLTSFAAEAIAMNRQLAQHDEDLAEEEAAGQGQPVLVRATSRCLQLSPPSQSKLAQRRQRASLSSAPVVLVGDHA
In short: (§1)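 Radiometric ^33P ATP cell-free format with purified enzymes; both complexes run at 10 μM in duplicate, results plotted on a kinome map via HGNC symbols.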

[2] = molecular target: T1, 140 purified human kinases (Homo sapiens, UniProt Q8IWQ3)
T1 sequence (Q8IWQ3 1-736): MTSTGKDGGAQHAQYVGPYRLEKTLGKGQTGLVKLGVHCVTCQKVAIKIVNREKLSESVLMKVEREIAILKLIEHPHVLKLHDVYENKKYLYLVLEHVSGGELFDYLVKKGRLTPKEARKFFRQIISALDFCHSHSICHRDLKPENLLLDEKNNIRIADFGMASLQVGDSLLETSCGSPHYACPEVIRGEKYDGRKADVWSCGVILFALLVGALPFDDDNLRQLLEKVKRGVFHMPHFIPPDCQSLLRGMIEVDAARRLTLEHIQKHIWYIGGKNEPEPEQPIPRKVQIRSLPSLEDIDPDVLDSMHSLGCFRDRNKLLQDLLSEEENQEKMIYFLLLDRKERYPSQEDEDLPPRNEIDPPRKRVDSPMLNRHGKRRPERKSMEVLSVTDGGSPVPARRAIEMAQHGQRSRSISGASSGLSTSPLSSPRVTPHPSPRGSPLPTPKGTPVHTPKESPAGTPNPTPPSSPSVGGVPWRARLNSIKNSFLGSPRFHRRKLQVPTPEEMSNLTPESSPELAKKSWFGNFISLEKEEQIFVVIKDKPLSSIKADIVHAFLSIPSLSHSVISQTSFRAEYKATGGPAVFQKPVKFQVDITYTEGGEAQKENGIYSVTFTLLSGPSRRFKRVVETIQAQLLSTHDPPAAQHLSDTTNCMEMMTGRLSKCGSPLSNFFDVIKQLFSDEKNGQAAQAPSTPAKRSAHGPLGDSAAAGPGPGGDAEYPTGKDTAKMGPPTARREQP
In short: as §1

[3] = molecular target: 140 purified human kinases (Homo sapiens, UniProt O96017)
140 purified human kinases (Homo sapiens, UniProt O96017), sequence (O96017 whole entry): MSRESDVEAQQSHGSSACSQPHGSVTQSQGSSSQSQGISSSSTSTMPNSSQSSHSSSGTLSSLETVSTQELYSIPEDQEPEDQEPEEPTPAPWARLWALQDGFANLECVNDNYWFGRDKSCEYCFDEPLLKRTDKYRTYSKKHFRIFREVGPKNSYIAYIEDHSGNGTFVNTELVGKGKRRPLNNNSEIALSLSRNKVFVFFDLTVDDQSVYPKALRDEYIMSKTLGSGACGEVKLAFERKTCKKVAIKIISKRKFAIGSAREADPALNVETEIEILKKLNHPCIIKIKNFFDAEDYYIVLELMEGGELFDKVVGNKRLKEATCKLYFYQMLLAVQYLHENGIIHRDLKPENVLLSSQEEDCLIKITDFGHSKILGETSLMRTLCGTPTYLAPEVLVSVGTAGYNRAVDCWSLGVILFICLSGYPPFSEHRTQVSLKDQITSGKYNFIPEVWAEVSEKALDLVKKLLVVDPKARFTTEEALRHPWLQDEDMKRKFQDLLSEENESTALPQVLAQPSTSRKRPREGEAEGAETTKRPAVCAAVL
In short: as §1

[4] = molecular target: 140 purified human kinases (Homo sapiens, UniProt P28482)
140 purified human kinases (Homo sapiens, UniProt P28482), sequence (P28482 whole entry): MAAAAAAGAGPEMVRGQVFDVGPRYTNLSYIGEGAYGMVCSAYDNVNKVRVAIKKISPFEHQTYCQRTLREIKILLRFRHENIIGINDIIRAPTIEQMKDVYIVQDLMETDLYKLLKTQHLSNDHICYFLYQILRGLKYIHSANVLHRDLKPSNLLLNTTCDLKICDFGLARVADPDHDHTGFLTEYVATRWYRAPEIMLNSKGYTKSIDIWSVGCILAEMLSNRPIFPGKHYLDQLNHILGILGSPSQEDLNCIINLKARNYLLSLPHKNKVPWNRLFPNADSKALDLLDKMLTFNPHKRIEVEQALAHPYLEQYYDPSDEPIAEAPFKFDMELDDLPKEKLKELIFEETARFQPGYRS
In short: as §1

[5] = molecular target: T2, 140 purified human kinases (Homo sapiens, UniProt Q99683)
T2 sequence (Q99683 1-1374): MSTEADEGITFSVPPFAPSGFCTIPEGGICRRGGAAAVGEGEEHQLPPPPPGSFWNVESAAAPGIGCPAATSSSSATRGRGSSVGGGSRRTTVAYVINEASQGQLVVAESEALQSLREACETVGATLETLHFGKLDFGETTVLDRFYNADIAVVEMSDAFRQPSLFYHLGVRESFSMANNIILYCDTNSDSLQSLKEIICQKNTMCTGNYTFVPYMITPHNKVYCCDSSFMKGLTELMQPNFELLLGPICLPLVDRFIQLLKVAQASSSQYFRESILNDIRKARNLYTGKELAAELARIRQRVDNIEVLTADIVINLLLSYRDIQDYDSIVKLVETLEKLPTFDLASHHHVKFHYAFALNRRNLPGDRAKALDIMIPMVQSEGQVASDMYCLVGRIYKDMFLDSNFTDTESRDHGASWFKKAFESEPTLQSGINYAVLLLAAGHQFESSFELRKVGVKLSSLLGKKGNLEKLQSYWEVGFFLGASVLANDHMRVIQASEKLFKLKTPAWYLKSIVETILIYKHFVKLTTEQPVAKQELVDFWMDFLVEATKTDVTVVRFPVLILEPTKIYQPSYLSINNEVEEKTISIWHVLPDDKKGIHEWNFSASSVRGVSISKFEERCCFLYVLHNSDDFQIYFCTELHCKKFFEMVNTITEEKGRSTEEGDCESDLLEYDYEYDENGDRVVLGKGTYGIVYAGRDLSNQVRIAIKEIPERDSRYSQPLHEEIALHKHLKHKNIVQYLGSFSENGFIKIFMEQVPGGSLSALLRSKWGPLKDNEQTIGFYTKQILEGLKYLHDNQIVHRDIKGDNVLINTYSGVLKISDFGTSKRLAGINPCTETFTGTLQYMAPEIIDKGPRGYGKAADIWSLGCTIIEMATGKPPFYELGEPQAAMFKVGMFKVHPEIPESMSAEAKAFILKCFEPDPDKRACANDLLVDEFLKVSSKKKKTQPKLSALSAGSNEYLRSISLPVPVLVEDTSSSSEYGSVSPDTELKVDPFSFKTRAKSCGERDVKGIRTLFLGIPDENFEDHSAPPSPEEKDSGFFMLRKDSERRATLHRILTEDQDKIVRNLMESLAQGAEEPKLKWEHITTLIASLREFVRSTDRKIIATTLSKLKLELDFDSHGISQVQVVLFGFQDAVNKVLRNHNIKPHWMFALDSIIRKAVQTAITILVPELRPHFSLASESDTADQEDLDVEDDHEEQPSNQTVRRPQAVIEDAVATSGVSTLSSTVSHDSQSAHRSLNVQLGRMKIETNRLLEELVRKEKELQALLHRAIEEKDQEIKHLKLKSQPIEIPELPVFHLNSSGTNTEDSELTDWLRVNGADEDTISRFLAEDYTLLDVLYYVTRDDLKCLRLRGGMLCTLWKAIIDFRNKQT
In short: as §1

[6] = molecular target: 140 purified human kinases (Homo sapiens, UniProt P53350); settings: for % Activity Run 1 / % Activity Run 2: 10 µM
140 purified human kinases (Homo sapiens, UniProt P53350), sequence (P53350 whole entry): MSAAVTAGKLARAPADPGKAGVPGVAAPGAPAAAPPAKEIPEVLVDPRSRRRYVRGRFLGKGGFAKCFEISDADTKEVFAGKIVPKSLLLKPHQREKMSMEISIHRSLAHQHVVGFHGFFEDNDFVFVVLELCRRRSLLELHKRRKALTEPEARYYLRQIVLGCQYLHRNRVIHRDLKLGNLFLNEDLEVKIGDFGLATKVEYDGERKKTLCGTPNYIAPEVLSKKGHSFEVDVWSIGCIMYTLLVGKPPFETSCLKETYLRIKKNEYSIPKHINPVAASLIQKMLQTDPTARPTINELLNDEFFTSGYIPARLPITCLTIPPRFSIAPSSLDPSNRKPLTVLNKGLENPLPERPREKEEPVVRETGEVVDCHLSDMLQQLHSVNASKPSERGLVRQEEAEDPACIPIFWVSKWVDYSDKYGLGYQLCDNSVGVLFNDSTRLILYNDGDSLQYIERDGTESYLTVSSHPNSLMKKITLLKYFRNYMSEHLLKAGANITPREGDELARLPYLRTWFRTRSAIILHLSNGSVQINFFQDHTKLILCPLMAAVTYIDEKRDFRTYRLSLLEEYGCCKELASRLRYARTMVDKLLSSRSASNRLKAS
In short: as §1

For `CC(=O)[O-].CC(=O)[O-].CC(=O)[O-].CC(=O)[O-].CC(=O)[O-].CC(=O)[O-].[Zn+2].[Zn+2].[Zn+2].c1ccc(-c2csc(NCCN(CCNc3nc(-c4ccccn4)cs3)CCNc3nc(-c4ccccn4)cs3)n2)nc1.c1ccc(-c2csc(NCCN(CCNc3nc(-c4ccccn4)cs3)CCNc3nc(-c4ccccn4)cs3)n2)nc1` [[L2Zn3]6+], the “% Inhibition, Mean” value ([1]; MNK2) was 33%, the “% Inhibition, Run 1 / Run 2” value ([1]; MNK2) was 44% and 22% and the mean % activity ([1]; MNK2) was 67%. For the same molecule, the “% activity” value ([1]; MNK2, duplicate runs) was 57% and 78%, the “% Inhibition, Mean” value ([2]; BRSK2) was 37% and the “% Inhibition, Run 1 / Run 2” value ([2]; BRSK2) was 44% and 30%. For the same molecule, the mean % activity ([2]; BRSK2) was 63%, the “% activity” value ([2]; BRSK2, duplicate runs) was 56% and 70% and the “% Inhibition, Mean” value ([3]; CHK2) was 22%. For the same molecule, the mean % activity ([3]; CHK2) was 78%, the “% activity” value ([3]; CHK2, duplicate runs) was 64% and 92% and the “% Inhibition, Mean” value ([4]; ERK2) was 18%. For the same molecule, the “% Inhibition, Run 1 / Run 2” value ([4]; ERK2) was 19% and 18%, the mean % activity ([4]; ERK2) was 82% and the “% activity” value ([4]; ERK2, duplicate runs) was 81% and 82%. The “% Inhibition, Mean” value ([5]; ASK1) was 27%, the “% Inhibition, Run 1 / Run 2” value ([5]; ASK1) was 31% and 24% and the mean % activity ([5]; ASK1) was 73%. For the same molecule, the “% activity” value ([5]; ASK1, duplicate runs) was 70% and 76%, the “% Activation, Mean value” ([6]; PLK1) was 17% and the “% Inhibition, Mean” value ([6]; PLK1) was -17%. The “% Inhibition, Run 1 / Run 2” value ([6]; PLK1) was -15% and -19%, the mean % activity ([6]; PLK1) was 117% and the “% Activity Run 1” value ([6]; PLK1) was 115.0%. The “% Activity Run 2” value ([6]; PLK1) was 119.0% and the “% activity” value ([6]; PLK1, duplicate runs) was 115% and 119%.
`[Cu+2].[Cu+2].[Cu+2].c1ccc(-c2csc(NCCN(CCNc3nc(-c4ccccn4)cs3)CCNc3nc(-c4ccccn4)cs3)n2)nc1.c1ccc(-c2csc(NCCN(CCNc3nc(-c4ccccn4)cs3)CCNc3nc(-c4ccccn4)cs3)n2)nc1` [[L2Cu3]6+] was tested, and the “% Inhibition Run 1” value ([1]; MNK2) was 59.3%, the “% Inhibition Run 2” value ([1]; MNK2) was 57.8% and the “% Inhibition, Mean” value ([1]; MNK2) was 59%. For the same molecule, the mean % activity ([1]; MNK2) was 41%, the “% activity” value ([1]; MNK2, Run 1) was 40.7% and the “% activity” value ([1]; MNK2, Run 2) was 42.2%. The “% Inhibition Run 1” value ([2]; BRSK2) was 77.8%, the “% Inhibition Run 2” value ([2]; BRSK2) was 75.3% and the “% Inhibition, Mean” value ([2]; BRSK2) was 77%. For the same molecule, the mean % activity ([2]; BRSK2) was 23%, the “% activity” value ([2]; BRSK2, Run 1) was 22.2% and the “% activity” value ([2]; BRSK2, Run 2) was 24.7%. For the same molecule, the “% Inhibition Run 1” value ([3]; CHK2) was 86.3%, the “% Inhibition Run 2” value ([3]; CHK2) was 76.4% and the “% Inhibition, Mean” value ([3]; CHK2) was 81%. For the same molecule, the mean % activity ([3]; CHK2) was 19%, the “% activity” value ([3]; CHK2, Run 1) was 13.7% and the “% activity” value ([3]; CHK2, Run 2) was 23.6%. For the same molecule, the “% Inhibition Run 1” value ([4]; ERK2) was 12.1%, the “% Inhibition Run 2” value ([4]; ERK2) was 8.4% and the “% Inhibition, Mean” value ([4]; ERK2) was 10%. The mean % activity ([4]; ERK2) was 90%, the “% activity” value ([4]; ERK2, Run 1) was 87.9% and the “% activity” value ([4]; ERK2, Run 2) was 91.6%. For the same molecule, the “% Inhibition Run 1” value ([5]; ASK1) was 16.4%, the “% Inhibition Run 2” value ([5]; ASK1) was 15.5% and the “% Inhibition, Mean” value ([5]; ASK1) was 16%. The mean % activity ([5]; ASK1) was 84%, the “% activity” value ([5]; ASK1, Run 1) was 83.6% and the “% activity” value ([5]; ASK1, Run 2) was 84.5%. The “% Activation, Mean value” ([6]; PLK1) was 12%, the “% Inhibition Run 1” value ([6]; PLK1) was -4.1% and the “% Inhibition Run 2” value ([6]; PLK1) was -19.1%. For the same molecule, the “% Inhibition, Mean” value ([6]; PLK1) was -12%, the mean % activity ([6]; PLK1) was 112% and the “% activity” value ([6]; PLK1, Run 1) was 104.1%. For the same molecule, the “% activity” value ([6]; PLK1, Run 2) was 119.1%, the “% Activity Run 1” value ([6]; PLK1) was 104.10% and the “% Activity Run 2” value ([6]; PLK1) was 119.10%.
